Test results: patent US12545708B2, “Peptide for treatment of corona virus infection disease COVID-19 and use thereof” (DAEGU GYEONGBUK INSTITUTE OF SCIENCE AND TECHNOLOGY, priority 2020, dated 2026)

Columns and labels:
[1] = target: RBD (Severe acute respiratory syndrome coronavirus 2, UniProt P0DTC2); test: biochemical; assay type: binding, SARS-CoV2
[2] = test system: HMC-3 cell line
[3] = test system: HEK293T cell line
[4] = test system: HepG2 cell line
[5] = test system: MRC-5 cell line

CC[C@H](C)[C@H](NC(=O)[C@H](CC(N)=O)NC(=O)[C@@H](NC(=O)[C@H](CC(N)=O)NC(=O)[C@H](Cc1ccc(O)cc1)NC(=O)[C@@H](NC(=O)[C@H](CC(N)=O)NC(=O)[C@H](CC(=O)O)NC(=O)[C@H](C)NC(=O)[C@H](CC(C)C)NC(=O)[C@H](CCC(N)=O)NC(=O)[C@H](CO)NC(=O)[C@H](CCCCN)NC(=O)[C@@H](N)CCSC)C(C)C)[C@@H](C)O)C(=O)N[C@H](C(=O)N[C@@H](CCCCN)C(=O)N[C@@H](CCC(=O)O)C(=O)N[C@@H](CC(N)=O)C(=O)N[C@H](C(=O)N[C@@H](CCC(N)=O)C(=O)N[C@@H](CC(N)=O)C(=O)N[C@@H](CCSC)C(=O)N[C@@H](CC(N)=O)C(=O)N[C@@H](CCC(=O)O)C(=O)N[C@@H](CCC(=O)O)C(=O)N[C@@H](CCC(N)=O)C(=O)N[C@@H](C)C(=O)N[C@@H](CCCCN)C(=O)N[C@H](C(=O)N[C@@H](Cc1ccccc1)C(=O)N[C@@H](CC(C)C)C(=O)N[C@@H](CC(=O)O)C(=O)N[C@@H](CCCCN)C(=O)N[C@@H](Cc1ccccc1)C(=O)N[C@@H](CC(N)=O)C(=O)N[C@@H](Cc1c[nH]cn1)C(=O)N[C@@H](CCC(=O)O)C(=O)N[C@@H](C)C(=O)N[C@@H](CCC(=O)O)C(=O)N[C@@H](CC(=O)O)C(=O)N[C@@H](CC(C)C)C(=O)N[C@@H](Cc1ccccc1)C(=O)N[C@@H](Cc1ccc(O)cc1)C(=O)N[C@@H](CCC(N)=O)C(=O)N[C@@H](CO)C(=O)N[C@@H](CO)C(=O)NCC(=O)N[C@@H](CC(C)C)C(=O)NCC(=O)N[C@@H](CCCCN)C(=O)NCC(=O)N[C@@H](CC(=O)O)C(=O)N[C@@H](Cc1ccccc1)C(=O)N[C@@H](CCCNC(=N)N)C(=O)O)[C@@H](C)O)C(C)C)[C@@H](C)O [PEP9]
Kd [1]: 34.5 nM | change in cell viability [2]: no significant change | decrease in the cell viability [2]: about 10% | change in cell viability [3]: no significant change | change in cell viability [4]: no significant change | change in cell viability [5]: no significant change
